According to ChEMBL document CHEMBL1817634, “One-pot synthesis of pyrazoline derivatised carbazoles as antitubercular, anticancer agents, their DNA cleavage and antioxidant activities” (2011):
≈ marks a conversion by molar mass, not a printed value. Calls of active or inactive are those of the source. No cut-off for these calls is given here.

How the values were obtained:
A498 [1] = experiment: Anticancer activity against human A498 cells assessed as cell growth at 10 ug/mL by sulforhodamine B assay; assay type: functional; settings: read-out: Activity
A549 [2] = experiment: Anticancer activity against human A549 cells assessed as cell growth at 20 ug/mL by sulforhodamine B assay; assay type: functional; settings: read-out: Activity
A498 [3] = experiment: Anticancer activity against human A498 cells assessed as cell growth at 80 ug/mL by sulforhodamine B assay; assay type: functional; settings: read-out: Activity
[4] = Antioxidant activity assessed as potassium ferric cyanide reducing power at 100 ug after 20 mins by spectrophotometry; assay type: functional
A498 [5] = experiment: Anticancer activity against human A498 cells assessed as cell growth at 20 ug/mL by sulforhodamine B assay; assay type: functional; settings: read-out: Activity
[6] = test system: Mycobacterium tuberculosis; experiment: Antitubercular activity against Mycobacterium tuberculosis H37Rv after 3 weeks by turbidity assay; assay type: functional; settings: 504 h
[7] = Antioxidant activity assessed as potassium ferric cyanide reducing power at 50 ug after 20 mins by spectrophotometry; assay type: functional
A549 [8] = experiment: Anticancer activity against human A549 cells assessed as cell growth at 40 ug/mL by sulforhodamine B assay; assay type: functional; settings: read-out: Activity
A549 [9] = experiment: Anticancer activity against human A549 cells assessed as cell growth at 80 ug/mL by sulforhodamine B assay; assay type: functional; settings: read-out: Activity
A549 [10] = experiment: Cytotoxicity against human A549 cells; assay type: functional
A549 [11] = experiment: Anticancer activity against human A549 cells assessed as cell growth at 10 ug/mL by sulforhodamine B assay; assay type: functional; settings: read-out: Activity
A498 [12] = experiment: Anticancer activity against human A498 cells assessed as cell growth at 40 ug/mL by sulforhodamine B assay; assay type: functional; settings: read-out: Activity
Nucleic Acid = experiment: Induction of Escherichia coli DNA cleavage at 100 ug after 2 hrs by agarose gel electrophoresis; assay type: nucleic-acid assay
A498 [13] = experiment: Cytotoxicity against human A498 cells; assay type: functional
[14] = Antioxidant activity assessed as potassium ferric cyanide reducing power at 10 ug after 20 mins by spectrophotometry; assay type: functional

Structure (SMILES) | growth at 10 µg/mL (A498 [1]) [%] | growth at 20 µg/mL (A549 [2]) [%] | growth at 80 µg/mL (A498 [3]) [%] | reducing power [4] [absorbance] | growth at 20 µg/mL (A498 [5]) [%] | MIC [6] [µg/mL] | reducing power [7] [absorbance] | growth at 40 µg/mL (A549 [8]) [%] | growth at 80 µg/mL (A549 [9]) [%] | GI50 (A549 [10]) [µg/mL] | LC50 (A549 [10]) [µg/mL] | TGI (A549 [10]) [µg/mL] | growth at 10 µg/mL (A549 [11]) [%] | growth at 40 µg/mL (A498 [12]) [%] | Activity (Nucleic Acid) | GI50 (A498 [13]) [µg/mL] | LC50 (A498 [13]) [µg/mL] | TGI (A498 [13]) [µg/mL] | reducing power [14] [absorbance]
Clc1ccc(C2CC(c3ccc4[nH]c5c(c4c3)CCCC5)=NN2)cc1 (stereo not given) | 100 | 74.6 | 31.7 | 0.303 | 100 | 3.5 (≈ 10 µM) | 0.191 | 67.1 | 11.5 | 47.6 (≈ 136 µM) | > 80 | > 80 | 83.2 | 97.5 | Active | 72.7 (≈ 208 µM) | > 80 | > 80 | 0.011
C(=C\C1CC(c2ccc3[nH]c4c(c3c2)CCCC4)=NN1)/c1ccccc1 (stereo not given) | 99.5 | 94.8 | 6 | 0.67 | 99.7 | 25 (≈ 73.2 µM) | 0.47 | 88.4 | 48.7 | 54 (≈ 158 µM) | > 80 | > 80 | 98.8 | 95.7 | inactive | 57 (≈ 167 µM) | > 80 | > 80 | 0.19
Cc1ccc(C2CC(c3ccc4[nH]c5c(c4c3)CCCC5)=NN2)cc1 (stereo not given) | 99.3 | -2.9 | 4.6 | 0.17 | 99.2 | 12 (≈ 36.4 µM) | 0.11 | -18.5 | -28.4 | 74.3 (≈ 226 µM) | > 80 | > 80 | 11.9 | 96.2 | inactive | 54 (≈ 164 µM) | > 80 | > 80 | 0.05
CN[C@@H]1[C@H](O[C@H]2[C@H](O[C@H]3[C@H](O)[C@@H](O)[C@H](N=C(N)N)[C@@H](O)[C@@H]3N=C(N)N)O[C@@H](C)[C@]2(O)C=O)O[C@@H](CO)[C@H](O)[C@H]1O [STREPTOMYCIN] |  |  |  |  |  | 7.5 (≈ 12.9 µM) |  |  |  |  |  |  |  |  |  |  |  |  | 
O=[N+]([O-])c1ccc(C2CC(c3ccc4[nH]c5c(c4c3)CCCC5)=NN2)cc1 (stereo not given) | 100 | 64.4 | 4.1 | 0.675 | 100 | 10 (≈ 27.7 µM) | 0.475 | 50.4 | 4.2 | 38.2 (≈ 106 µM) | > 80 | > 80 | 70.1 | 97.7 | Active | 56.2 (≈ 156 µM) | > 80 | > 80 | 0.195
Oc1ccccc1C1CC(c2ccc3[nH]c4c(c3c2)CCCC4)=NN1 (stereo not given) | 99.3 | -2.9 | 16.5 | 0.246 | 99.5 | 4.5 (≈ 13.6 µM) | 0.137 | -18.5 | -28.4 | 75.7 (≈ 228 µM) | > 70 | > 70 | 11.9 | 97.7 | inactive | 62.3 (≈ 188 µM) | > 80 | > 80 | 0.118
COc1cccc2c1C(=O)c1c(O)c3c(c(O)c1C2=O)C[C@@](O)(C(=O)CO)C[C@@H]3O[C@H]1C[C@H](N)[C@H](O)[C@H](C)O1 [DOXORUBICIN] | 10.7 | 8.2 | -66.9 |  | 8.2 |  |  | -39.5 | -66.9 | < 10 |  | 41.3 (≈ 76 µM) | 10.7 | -39.5 |  | < 10 |  | 32.4 (≈ 59.6 µM) | 
c1ccc(C2CC(c3ccc4[nH]c5c(c4c3)CCCC5)=NN2)cc1 (stereo not given) | 100 | 94.8 | 3.9 | 0.126 | 99.1 | 12 (≈ 38 µM) | 0.102 | 88.4 | 48.7 | > 80 | > 80 | > 80 | 98.8 | 95.9 | inactive | 55.6 (≈ 176 µM) | > 80 | > 80 | 0.01
COc1ccc(C2CC(c3ccc4[nH]c5c(c4c3)CCCC5)=NN2)cc1 (stereo not given) | 98.3 | 76.2 | 4.2 | 0.673 | 100 | 10 (≈ 28.9 µM) | 0.473 | 69.4 | 15.3 | 56.2 (≈ 163 µM) | > 80 | > 80 | 81.6 | 97.7 | inactive | 55 (≈ 159 µM) | > 80 | > 80 | 0.193
NC(=O)c1cnccn1 [PYRAZINAMIDE] |  |  |  |  |  | 10 (≈ 81.2 µM) |  |  |  |  |  |  |  |  |  |  |  |  | 
Clc1ccccc1C1CC(c2ccc3[nH]c4c(c3c2)CCCC4)=NN1 (stereo not given) | 100 | 81.6 | 16.2 | 0.295 | 100 | 5 (≈ 14.3 µM) | 0.121 | 75.7 | 12.1 | 51.6 (≈ 147 µM) | > 80 | > 80 | 90.2 | 97.4 | inactive | 62 (≈ 177 µM) | > 80 | > 80 | 0.004
Oc1ccc(C2CC(c3ccc4[nH]c5c(c4c3)CCCC5)=NN2)cc1 (stereo not given) | 83 | 74.6 | 3.9 | 0.25 | 86 | 3.5 (≈ 10.6 µM) | 0.14 | 67.1 | 11.5 | 76.5 (≈ 231 µM) | > 70 | > 70 | 83.2 | 83 | inactive | 74.5 (≈ 225 µM) | > 70 | > 70 | 0.125
